Values of other authors in patent US20100234277A1, “COADMINISTRATION OF ALPHA-FETOPROTEIN AND A DISEASE MODIFYING ANTI-RHEUMATIC DRUG FOR TREATING INFLAMMATORY ARTHRITIC DISEASE” (priority 2006, published 2010).

Conditions: in vivo

Compound: CN(Cc1cnc2nc(N)nc(N)c2n1)c1ccc(C(=O)N[C@@H](CCC(=O)O)C(=O)O)cc1 [methotrexate, N-[4-[[(2,4-diamino-6-pteridinyl)methyl]methylamino]benzoyl]-L-glutamic acid]
- individuals with rheumatoid arthritis (RA) that respond favorably to treatment: Approximately 70%
